# Data: patent publication US20080039455A1, “PYRAZOLOPYRIMIDINES AND SALTS THEREOF, PHARMACEUTICAL COMPOSITIONS COMPRISING SAME, METHODS OF PREPARING SAME AND USES OF SAME” (priority 2006, published 2008)
# Target: T1, human recombinant ALK1 (GST fused to ALK1 intracellular domain [His142-Gln503]) (Homo sapiens, UniProt P37023)
# T1 construct: GST fused to ALK1 intracellular domain [His142-Gln503]; made in house
# T1 sequence (P37023 142-503): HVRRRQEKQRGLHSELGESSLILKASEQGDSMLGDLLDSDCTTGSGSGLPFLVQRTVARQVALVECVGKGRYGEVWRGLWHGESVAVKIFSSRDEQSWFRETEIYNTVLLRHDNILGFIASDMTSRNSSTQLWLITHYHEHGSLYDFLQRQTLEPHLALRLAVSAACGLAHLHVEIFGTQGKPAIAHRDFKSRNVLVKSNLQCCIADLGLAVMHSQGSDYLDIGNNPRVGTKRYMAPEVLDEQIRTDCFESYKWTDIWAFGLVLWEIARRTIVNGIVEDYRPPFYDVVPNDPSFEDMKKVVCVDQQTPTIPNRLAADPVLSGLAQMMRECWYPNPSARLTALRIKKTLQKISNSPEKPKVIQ
# Assay: ALK1-Kinase Flashplate-Assay
# Type: biochemical
# Settings: 0.5 μM ATP, biotinylated α-casein substrate; read-out: Assay 1 (ALK1-Kinase Flashplate-Assay IC50 class)
# How it was run: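 Radiometric Flashplate assay at 20 °C: GST-ALK1 intracellular domain (5 ng/well) with 1 μM biotinylated bovine α-casein, 0.5 μM ATP plus [γ-33P]ATP in Tris pH 8.0, 1 mM MnCl2, 1% or 5% DMSO, 60 min. Normalised to no-inhibitor (0%) and 10 mM EDTA (100%); IC50 by 4-parameter fit.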
row,SMILES,IC50 [nM]
1,"CC(=O)c1cccc(-c2cnn3ccc(NCc4ccncc4)nc23)c1 [Example 216, 1-(3-{5-[(Pyridin-4-ylmethyl)-amino]-pyrazolo[1,5-a]pyrimidin-3-yl}-phenyl)-ethanone]",1000 to 10000
2,"c1cc(CNc2ccn3ncc(-c4cn[nH]c4)c3n2)ccn1 [Example 218, [3-(1H-Pyrazol-4-yl)-pyrazolo[1,5-a]pyrimidin-5-yl]-pyridin-4-ylmethyl-amine]",1000 to 10000
3,"c1ccc(Cn2cc(-c3cnn4ccc(NCc5ccncc5)nc34)cn2)cc1 [Example 219, [3-(1-Benzyl-1H-pyrazol-4-yl)-pyrazolo[1,5-a]pyrimidin-5-yl]-pyridin-4-ylmethyl-amine]",1000 to 10000
4,"NC(=O)c1cccc(-c2cnn3ccc(NC4CCC(O)CC4)nc23)c1 (stereo not shown) [Example 220, 3-[5-(4-Hydroxy-cyclohexylamino)-pyrazolo[1,5-a]pyrimidin-3-yl]-benzamide]",1000 to 10000
5,"Cn1cc(-c2cnn3ccc(NC4CCC(O)CC4)nc23)cn1 (stereo not shown) [Example 221, 4-[3-(1-Methyl-1H-pyrazol-4-yl)-pyrazolo[1,5-a]pyrimidin-5-ylamino]-cyclohexanol]",1000 to 10000
6,"NC(=O)c1cccc(-c2cnn3ccc(NCc4cccnc4)nc23)c1 [Example 223, 3-{5-[(Pyridin-3-ylmethyl)-amino]-pyrazolo[1,5-a]pyrimidin-3-yl}-benzamide]",1000 to 10000
7,"CC(=O)c1cccc(-c2cnn3ccc(NCc4cccnc4)nc23)c1 [Example 227, 1-(3-{5-[(Pyridin-3-ylmethyl)-amino]-pyrazolo[1,5-a]pyrimidin-3-yl}-phenyl)-ethanone]",1000 to 10000
8,"Cn1cc(-c2cnn3ccc(NCc4cccnc4)nc23)cn1 [Example 230, [3-(1-Methyl-1H-pyrazol-4-yl)-pyrazolo[1,5-a]pyrimidin-5-yl]-pyridin-3-ylmethyl-amine]",1000 to 10000
9,"NC(=O)c1cccc(-c2cnn3ccc(Nc4ccc(N5CCOCC5)cc4)nc23)c1 [Example 232, 3-[5-(4-Morpholin-4-yl-phenylamino)-pyrazolo[1,5-a]pyrimidin-3-yl]-benzamide]",< 1000
10,"COc1cccc(-c2cnn3ccc(Nc4ccc(N5CCOCC5)cc4)nc23)c1 [Example 233, [3-(3-Methoxy-phenyl)-pyrazolo[1,5-a]pyrimidin-5-yl]-(4-morpholin-4-yl-phenyl)-amine]",1000 to 10000
11,"c1csc(-c2cnn3ccc(Nc4ccc(N5CCOCC5)cc4)nc23)c1 [Example 234, (4-Morpholin-4-yl-phenyl)-(3-thiophen-2-yl-pyrazolo[1,5-a]pyrimidin-5-yl)-amine]",1000 to 10000
12,"Cn1cc(-c2cnn3ccc(Nc4ccc(N5CCOCC5)cc4)nc23)cn1 [Example 235, [3-(1-Methyl-1H-pyrazol-4-yl)-pyrazolo[1,5-a]pyrimidin-5-yl]-(4-morpholin-4-yl-phenyl)-amine]",1000 to 10000
13,"COc1cccc(-c2cnn3ccc(Nc4ccccc4)nc23)c1 [Example 241, [3-(3-Methoxy-phenyl)-pyrazolo[1,5-a]pyrimidin-5-yl]-phenyl-amine]",1000 to 10000
14,"c1ccc(Nc2ccn3ncc(-c4cccs4)c3n2)cc1 [Example 242, Phenyl-(3-thiophen-2-yl-pyrazolo[1,5-a]pyrimidin-5-yl)-amine]",1000 to 10000
15,"CS(=O)(=O)Nc1cccc(-c2cnn3ccc(Nc4ccccc4)nc23)c1 [Example 243, N-[3-(5-Phenylamino-pyrazolo[1,5-a]pyrimidin-3-yl)-phenyl]-methanesulfonamide]",< 1000
16,"Cn1cc(-c2cnn3ccc(Nc4ccccc4)nc23)cn1 [Example 244, [3-(1-Methyl-1H-pyrazol-4-yl)-pyrazolo[1,5-a]pyrimidin-5-yl]-phenyl-amine]",< 1000
17,"O=C(O)c1ccc(-c2cnn3ccc(Nc4ccccc4)nc23)cc1 [Example 248, 4-(5-Phenylamino-pyrazolo[1,5-a]pyrimidin-3-yl)-benzoic acid]",1000 to 10000
18,"COc1cncc(-c2cnn3ccc(Nc4ccccc4)nc23)c1 [Example 251, [3-(5-Methoxy-pyridin-3-yl)-pyrazolo[1,5-a]pyrimidin-5-yl]-phenyl-amine]",1000 to 10000
19,"COc1cc(-c2cnn3ccc(Nc4ccc(Oc5ccccc5)cc4)nc23)cc(OC)c1OC [Example 254, (4-Phenoxy-phenyl)-[3-(3,4,5-trimethoxy-phenyl)-pyrazolo[1,5-a]pyrimidin-5-yl]-amine]",1000 to 10000
20,"O=C(O)c1ccc(-c2cnn3ccc(Nc4ccc(Oc5ccccc5)cc4)nc23)cc1 [Example 255, 4-[5-(4-Phenoxy-phenylamino)-pyrazolo[1,5-a]pyrimidin-3-yl]-benzoic acid]",< 1000
21,"COc1cc(-c2cnn3ccc(Nc4ccc(F)c(Cl)c4)nc23)cc(OC)c1OC [Example 259, (3-Chloro-4-fluoro-phenyl)-[3-(3,4,5-trimethoxy-phenyl)-pyrazolo[1,5-a]pyrimidin-5-yl]-amine]",1000 to 10000
22,"CC(=O)c1cccc(-c2cnn3ccc(Nc4ccc(C(C)C)cc4)nc23)c1 [Example 266, 1-{3-[5-(4-Isopropyl-phenylamino)-pyrazolo[1,5-a]pyrimidin-3-yl]-phenyl}-ethanone]",1000 to 10000
23,"Oc1cccc(-c2cnn3ccc(Nc4ccccc4)nc23)c1 [Example 271, 3-(5-Phenylamino-pyrazolo[1,5-a]pyrimidin-3-yl)-phenol]",1000 to 10000
24,"OCc1cccc(-c2cnn3ccc(Nc4ccccc4)nc23)c1 [Example 272, [3-(5-Phenylamino-pyrazolo[1,5-a]pyrimidin-3-yl)-phenyl]-methanol]",< 1000
25,"CC(C)c1ccc(Nc2ccn3ncc(-c4cccc(CO)c4)c3n2)cc1 [Example 275, {3-[5-(4-Isopropyl-phenylamino)-pyrazolo[1,5-a]pyrimidin-3-yl]-phenyl}-methanol]",1000 to 10000
26,"COc1cc(-c2cnn3ccc(Nc4ccc(C(C)C)cc4)nc23)ccc1O [Example 277, 4-[5-(4-Isopropyl-phenylamino)-pyrazolo[1,5-a]pyrimidin-3-yl]-2-methoxy-phenol]",< 1000
27,"c1ccc(Nc2ccn3ncc(-c4cccnc4)c3n2)cc1 [Example 278, Phenyl-(3-pyridin-3-yl-pyrazolo[1,5-a]pyrimidin-5-yl)-amine]",1000 to 10000
28,"c1ccc(Nc2ccn3ncc(-c4ccsc4)c3n2)cc1 [Example 280, Phenyl-(3-thiophen-3-yl-pyrazolo[1,5-a]pyrimidin-5-yl)-amine]",1000 to 10000

# Results, then the molecule that gave them:
row,IC50 [nM],SMILES
1,1000 to 10000,"Oc1ccc(-c2cnn3ccc(Nc4ccccc4)nc23)cc1 [Example 282, 4-(5-Phenylamino-pyrazolo[1,5-a]pyrimidin-3-yl)-phenol]"
2,1000 to 10000,"CC(=O)Nc1cccc(-c2cnn3ccc(Nc4ccccc4)nc23)c1 [Example 283, N-[3-(5-Phenylamino-pyrazolo[1,5-a]pyrimidin-3-yl)-phenyl]-acetamide]"
3,1000 to 10000,"c1cncc(CNc2ccn3ncc(-c4ccc5c(c4)OCO5)c3n2)c1 [Example 290, (3-Benzo[1,3]dioxol-5-yl-pyrazolo[1,5-a]pyrimidin-5-yl)-pyridin-3-ylmethyl-amine]"
4,1000 to 10000,"c1cncc(CNc2ccn3ncc(-c4ccsc4)c3n2)c1 [Example 291, Pyridin-3-ylmethyl-(3-thiophen-3-yl-pyrazolo[1,5-a]pyrimidin-5-yl)-amine]"
5,1000 to 10000,"COc1ccc(-c2cnn3ccc(NCc4cccnc4)nc23)cc1OC [Example 292, [3-(3,4-Dimethoxy-phenyl)-pyrazolo[1,5-a]pyrimidin-5-yl]-pyridin-3-ylmethyl-amine]"
6,1000 to 10000,"Oc1ccc(-c2cnn3ccc(NCc4cccnc4)nc23)cc1 [Example 293, 4-{5-[(Pyridin-3-ylmethyl)-amino]-pyrazolo[1,5-a]pyrimidin-3-yl}-phenol]"
7,< 1000,"COc1cc(-c2cnn3ccc(Nc4cccc(Cl)c4)nc23)cc(OC)c1OC [Example 306, (3-Chloro-phenyl)-[3-(3,4,5-trimethoxy-phenyl)-pyrazolo[1,5-a]pyrimidin-5-yl]-amine]"
8,1000 to 10000,"Oc1cccc(-c2cnn3ccc(Nc4cccc(Cl)c4)nc23)c1 [Example 311, 3-[5-(3-Chloro-phenylamino)-pyrazolo[1,5-a]pyrimidin-3-yl]-phenol]"
9,1000 to 10000,"OCc1cccc(-c2cnn3ccc(Nc4cccc(Cl)c4)nc23)c1 [Example 312, {3-[5-(3-Chloro-phenylamino)-pyrazolo[1,5-a]pyrimidin-3-yl]-phenyl}-methanol]"
10,1000 to 10000,"COc1cc(-c2cnn3ccc(Nc4cccc(Cl)c4)nc23)ccc1O [Example 314, 4-[5-(3-Chloro-phenylamino)-pyrazolo[1,5-a]pyrimidin-3-yl]-2-methoxy-phenol]"
11,1000 to 10000,"Cc1ccc(S(=O)(=O)Nc2ccc(Nc3ccn4ncc(-c5ccc(C(=O)NCCN(C)C)cc5)c4n3)cc2)cc1 [Example 320, N-(2-Dimethylamino-ethyl)-4-{5-[4-(toluene-4-sulfonylamino)-phenylamino]-pyrazolo[1,5-a]pyrimidin-3-yl}-benzamide]"
12,1000 to 10000,"CN(C)CCNC(=O)c1cccc(-c2cnn3ccc(Nc4ccc(O)cc4)nc23)c1 [Example 326, N-(2-Dimethylamino-ethyl)-3-[5-(4-hydroxy-phenylamino)-pyrazolo[1,5-a]pyrimidin-3-yl]-benzamide]"
